Laboratory results taken from the NIST ThermoML archive (doi:10.1021/je500420g).
± gives the expanded uncertainty stated by the source.

Assay: xn = mol fraction of the nth substance listed
Conditions: 100 kPa, Liquid, Vibrating tube method

SMILES | mass density (293.15 K, x1 = 0.01) [kg/m3] | mass density (293.15 K, x1 = 0.03) [kg/m3] | mass density (293.15 K, x1 = 0.05) [kg/m3] | mass density (303.15 K, x1 = 0.01) [kg/m3] | mass density (303.15 K, x1 = 0.03) [kg/m3] | mass density (303.15 K, x1 = 0.05) [kg/m3] | mass density (313.15 K, x1 = 0.01) [kg/m3] | mass density (313.15 K, x1 = 0.03) [kg/m3] | mass density (313.15 K, x1 = 0.05) [kg/m3] | mass density (323.15 K, x1 = 0.01) [kg/m3] | mass density (323.15 K, x1 = 0.03) [kg/m3] | mass density (323.15 K, x1 = 0.05) [kg/m3] | mass density (333.15 K, x1 = 0.01) [kg/m3] | mass density (333.15 K, x1 = 0.03) [kg/m3] | mass density (333.15 K, x1 = 0.05) [kg/m3]
[Br-].[Cs+] [cesium bromide] + O | 1090.5 ± 0.2 | 1267.9 ± 0.4 | 1438.8 ± 0.5 | 1086.7 ± 0.2 | 1262.8 ± 0.4 | 1432.6 ± 0.5 | 1082.3 ± 0.3 | 1257.3 ± 0.4 | 1426 ± 0.5 | 1077.6 ± 0.3 | 1251.5 ± 0.4 | 1419.3 ± 0.5 | 1072.4 ± 0.3 | 1245.5 ± 0.4 | 1412.4 ± 0.5
[Cl-].[Cs+] [cesium chloride] + O | 1069.9 ± 0.2 | 1208.3 ± 0.3 | 1342.6 ± 0.4 | 1066.3 ± 0.2 | 1203.6 ± 0.3 | 1337 ± 0.4 | 1062.1 ± 0.2 | 1198.6 ± 0.3 | 1331.2 ± 0.4 | 1057.5 ± 0.2 | 1193.2 ± 0.3 | 1325.2 ± 0.4 | 1052.4 ± 0.2 | 1187.7 ± 0.3 | 1319.1 ± 0.4
[Cs+].[F-] [cesium fluoride (CsF)] + O | 1070.9 ± 0.2 | 1210.1 ± 0.3 | 1349.9 ± 0.4 | 1068 ± 0.2 | 1206.2 ± 0.3 | 1345.4 ± 0.4 | 1064.3 ± 0.2 | 1201.7 ± 0.3 | 1340.4 ± 0.4 | 1059.9 ± 0.3 | 1196.6 ± 0.3 | 1334.9 ± 0.4 | 1053 ± 0.3 | 1190.9 ± 0.3 | 1329.1 ± 0.4
[Cs+].[I-] [cesium iodide] + O | 1109.5 ± 0.3 | 1320.7 ± 0.4 | 1519.4 ± 0.6 | 1105.6 ± 0.3 | 1314.9 ± 0.4 | 1512.1 ± 0.6 | 1101 ± 0.3 | 1308.9 ± 0.4 | 1504.5 ± 0.6 | 1096 ± 0.3 | 1302.5 ± 0.4 | 1496.9 ± 0.6 | 1090.6 ± 0.3 | 1295.9 ± 0.4 | 1489.1 ± 0.6
[Br-].[Li+] [lithium bromide] + O | 1033.5 ± 0.2 | 1101.8 ± 0.3 | 1171.5 ± 0.3 | 1030.2 ± 0.2 | 1098 ± 0.3 | 1168 ± 0.3 | 1026.3 ± 0.2 | 1093.9 ± 0.3 | 1163.9 ± 0.3 | 1022 ± 0.2 | 1089.4 ± 0.3 | 1159.3 ± 0.3 | 1017.2 ± 0.2 | 1084.6 ± 0.3 | 1154.3 ± 0.3
[Cl-].[Li+] [lithium chloride] + O | 1012.3 ± 0.2 | 1038.5 ± 0.2 | 1064.1 ± 0.2 | 1009.7 ± 0.2 | 1035.7 ± 0.2 | 1061.2 ± 0.2 | 1006.2 ± 0.2 | 1032.3 ± 0.2 | 1057.9 ± 0.2 | 1002.1 ± 0.2 | 1028.3 ± 0.2 | 1054 ± 0.2 | 997.4 ± 0.2 | 1023.8 ± 0.2 | 1049.8 ± 0.2
[I-].[Li+] [lithium iodide] + O | 1053.3 ± 0.2 | 1160.8 ± 0.3 | 1268.1 ± 0.4 | 1049.8 ± 0.2 | 1156.3 ± 0.3 | 1262.7 ± 0.4 | 1045.7 ± 0.2 | 1151 ± 0.3 | 1257.2 ± 0.4 | 1041.2 ± 0.2 | 1146.1 ± 0.3 | 1251.4 ± 0.4 | 1036.2 ± 0.2 | 1140.7 ± 0.3 | 1245.5 ± 0.4
[Br-].[K+] [potassium bromide] + O | 1045.7 ± 0.2 | 1137.7 ± 0.3 | 1227.4 ± 0.3 | 1042.6 ± 0.2 | 1133.7 ± 0.3 | 1222.6 ± 0.3 | 1038.7 ± 0.2 | 1129.1 ± 0.3 | 1217.4 ± 0.3 | 1034.2 ± 0.2 | 1123.9 ± 0.3 | 1211.7 ± 0.3 | 1029.2 ± 0.2 | 1118.4 ± 0.3 | 1205.7 ± 0.3
[Cl-].[K+] [potassium chloride] + O | 1024.3 ± 0.2 | 1074.8 ± 0.2 | 1123.6 ± 0.3 | 1021.4 ± 0.2 | 1071.2 ± 0.2 | 1119.6 ± 0.3 | 1017.7 ± 0.2 | 1067 ± 0.2 | 1115.1 ± 0.3 | 1013.3 ± 0.2 | 1062.4 ± 0.2 | 1110.2 ± 0.3 | 1008.4 ± 0.2 | 1057.2 ± 0.3 | 1104.9 ± 0.3
[F-].[K+] [potassium fluoride] + O | 1025.7 ± 0.2 | 1080.5 ± 0.2 | 1135.5 ± 0.3 | 1022.8 ± 0.2 | 1077 ± 0.2 | 1130.7 ± 0.3 | 1019.2 ± 0.2 | 1072.9 ± 0.2 | 1126.5 ± 0.3 | 1014.8 ± 0.2 | 1068.4 ± 0.2 | 1121.9 ± 0.3 | 1010 ± 0.2 | 1063.5 ± 0.2 | 1116.9 ± 0.3
